{"source": "patent US9402827B2", "about": "“Treatment of gout” (ARDEA BIOSCIENCES, INC., priority 2010, dated 2016)", "key": {"[1]": {"tested_on": "IL-1β", "assay": "In vitro THP-1 (human cell) assay, IL-1β", "assay_type": "cell-based", "conditions": "differentiated THP-1 cells, 6 hours, FIG. 3B", "description": "(§1) Uric acid (2 g, Sigma, Cat #U0881, Log S89329-419) was heated in a flask at 200° C. for 2 hours. Endotoxin free water (396 mL) followed by aqueous sodium hydroxide solution (2.375 mL of 5N or 1.19 mL 10N) were added and heated on a stir plate until the uric acid dissolved. […] The solution was stirred at room temperature for 24 hours and then centrifuged at 1000 g for 10 min. The supernatant was discarded and resuspended in PBS and centrifuged at 1000 g for 10 min; this step was repeated twice. The washed crystals were heated at 60° C. until dry and then autoclaved at 200° C. for 2 hours. The crystals were then weighed and resuspended in PBS at a concentration of 26 mg/ml.\n(§2) THP-1 cells were differentiated with 0.5 μM of phorbol myristate acetate (PMA) incubated for 3 hours. Cells were then spun down and washed once with HBSS. 1.25×10^6/mL cells were plated in white clear bottom white 96 well plate in 100 μL volume and incubated overnight. The next day the media was aspirated from the wells. 100 μL of 1× Optimem along with the compounds were added."}, "[2]": {"tested_on": "TNF-α", "assay": "In vitro THP-1 (human cell) assay, TNF-α", "assay_type": "cell-based", "conditions": "differentiated THP-1 cells, 6 hours, FIG. 3A", "description": "as §1, §2"}, "[3]": {"tested_on": "IL-1β", "assay": "Effect on IL-1β release after stimulation with ATP or MSU crystals (Example 1, FIG. 1)", "assay_type": "cell-based", "conditions": "within 1 hour of stimulation with ATP (5 mM) or 1 μg MSU crystals", "description": "FIG. 1 illustrates the effect of Lesinurad on IL-1β release within 1 hour of stimulation with ATP (5 mM) or 1 μg MSU (monosodium urate) crystals (compd1=Lesinurad; C-1inh=caspase-1 inhibitor).\nActivation of the inflammasome results in the release of preformed IL-1, which goes on to activate other targets as well as increase the production of IL-1 itself."}, "[4]": {"tested_on": "gout flares", "assay": "Phase II clinical trial, gout dose response study: incidence of gout flares (Example 4)", "assay_type": "in vivo, human"}, "[5]": {"tested_on": "monosodium urate (MSU) crystal injection-induced inflammation", "assay": "In vivo MSU-induced inflammation, rat air pouch study (Example 3B)", "set-up": "species or system Sprague-Dawley rats", "conditions": "for Extravasation (optical absorbance at 620 nm), Av / Extravasation (optical absorbance at 620 nm), individual rats 1-10 / Exudate volume, Av / Exudate volume, individual rats 1-10 / Total white blood cell count, Av / Total white blood cell count, individual rats 1-10: 4 h after MSU", "description": "(Air Pouch studies) were unpacked, placed in cages, a health inspection performed and a number assigned. […] Under anesthesia, 30 mL sterile air was injected subcutaneously on day 0 and day 3. Vehicle (water) or Lesinurad were administered orally. On the day of the experiment, rats were dosed with Vehicle, Lesinurad p.o., and/or colchicine s.c. (Sigma, Cat.#C9754, Lot.#188K1131). […] The pouch was gently massaged and the exudate was immediately removed from the air pouch. The exudate volume was measured and recorded for each animal. […] The supernatants were stored at −20° C. for cytokine analysis. […] Plasma extravasation was measured by optical absorbance at 620 nm for each exudate sample."}, "[6]": {"tested_on": "monosodium urate crystal-induced inflammatory response", "assay": "Rat air pouch model of crystal-induced arthropathy (Example 3A)", "assay_type": "in vivo, Sprague-Dawley rats", "conditions": "Lesinurad 10, 30 and 100 mg/kg PO; MSU 150 mg; FIG. 5", "description": "Procedure • 1. […] NaOH was added as required to maintain pH 8-9. The solution was filtered and incubated at ambient with slow stirring continuously for 24 hours. • b. Crystals were washed, dried and sterilized by autoclaving. • c. […] The rats were anesthetized and bled for sample from retro-orbital sinus into microtainer tubes. • a. The blood was processed to serum; • b. The serum was transferred to labeled Eppendorf tubes (T=0) and stored at −80° C. • c. […] DAY 0: The rats are anesthetized. • a. The nape of the neck was shaved, cleansed with 70% isopropanol followed by cleansing with Povidone. • b. A 23-gauge needle was attached to a 30 ml syringe fitted with an air filter. • c. 30 ml of sterile air was injected subcutaneously and the rat returned to routine maintenance. • 7. DAY 3: Steps 6a) through 6c) were repeated. • 8. […] Exudates volume was measured and recorded for each animal. • a. […] Mean cell counts and standard deviations were determined for each group. • b. Mean optical absorbance measurements and standard deviations were determined for each group. • c. Group means and standard deviations for TNF-alpha and IL-1 were determined for each group. • d. Statistical significance of treatments on mean cell counts, mean optical absorbance measurements and mean cytokine measurements were determined by comparison of means for treatment and positive control groups with vehicle group."}}, "note": "Where “and” joins values, the source holds several entries; their conditions need not be identical. Equal entries are not always repeated."}
{"molecule": "O=C(O)CSc1nnc(Br)n1-c1ccc(C2CC2)c2ccccc12", "note": "[Lesinurad, 2-(5-bromo-4-(4-cyclopropylnaphthalen-1-yl)-4H-1,2,4-triazol-3-ylthio)acetic acid]", "values": [{"measurement": "IC50", "setting": "[1]", "value": "~30", "unit": "µM"}, {"measurement": "IC50", "setting": "[2]", "value": "~52", "unit": "µM"}, {"measurement": "IL-1 release", "setting": "[3]", "value": "blocks IL-1 release very early"}, {"measurement": "% of patients with Flares by Dose at Time of Flare", "setting": "[4]; 400 mg at time of flare (1/65)", "value": "2% (1/65)"}, {"measurement": "Mean Duration of Flares (by dose at time of flare)", "setting": "[4]; 600 mg at time of flare", "value": 1.7, "unit": "days"}, {"measurement": "% Patients with Flares", "setting": "[4]; Randomized dose group 400 mg, N 33", "value": 12, "unit": "%"}, {"measurement": "Mean Duration of Flares", "setting": "[4]; Randomized dose group 600 mg", "value": 1.5, "unit": "days"}, {"measurement": "Duration of flares, in words", "setting": "[4]; across dose groups 200-600 mg", "value": "shorter at higher doses"}, {"measurement": "Flares in the first week out of total flares on drug", "setting": "[4]; first week, patients receiving 200 mg QD", "value": "6/10"}, {"measurement": "Extravasation (optical absorbance at 620 nm), Av", "setting": "[5]; Lesinurad 0.1 mg/kg p.o.", "value": 1.87}, {"measurement": "Extravasation (optical absorbance at 620 nm), individual rats 1-10", "setting": "[5]; Lesinurad 0.1 mg/kg p.o.", "value": "1.84 and 1.83 and 1.89 and 2.19 and 1.54 and 2.14 and 1.94 and 1.61 and 1.90 and 1.88"}, {"measurement": "Exudate volume, Av", "setting": "[5]; Lesinurad 0.1 mg/kg p.o.", "value": 9.18, "unit": "mL"}, {"measurement": "Exudate volume, individual rats 1-10", "setting": "[5]; Lesinurad 0.1 mg/kg p.o.", "value": "8 mL (3×) and 9 mL and 11 mL and 10 mL and 9.6 mL and 9.2 mL and 7 mL and 12 mL"}, {"measurement": "Total white blood cell count, Av", "setting": "[5]; Lesinurad 0.1 mg/kg p.o.", "value": "0.92 ×10^8"}, {"measurement": "Total white blood cell count, individual rats 1-10", "setting": "[5]; Lesinurad 0.1 mg/kg p.o.", "value": "0.14 ×10^8 (2×) and 0.07 ×10^8 and 2.28 ×10^8 and 2.75 ×10^8 and 0.48 ×10^8 and 0.92 ×10^8 and 0.03 ×10^8 and 2.00 ×10^8 and 0.39 ×10^8"}, {"measurement": "Extravasation (optical absorbance at 620 nm), Av", "setting": "[5]; Lesinurad 1 mg/kg p.o.", "value": 1.87}, {"measurement": "Extravasation (optical absorbance at 620 nm), individual rats 1-10", "setting": "[5]; Lesinurad 1 mg/kg p.o.", "value": "1.79 (2×) and 2.01 and 2.27 and 1.36 and 1.94 and 1.67 and 1.98 and 2.04 and 1.83"}, {"measurement": "Exudate volume, Av", "setting": "[5]; Lesinurad 1 mg/kg p.o.", "value": 9.68, "unit": "mL"}, {"measurement": "Exudate volume, individual rats 1-10", "setting": "[5]; Lesinurad 1 mg/kg p.o.", "value": "9.6 mL and 7 mL (2×) and 13 mL and 5 mL and 10 mL and 12 mL and 14 mL and 7.8 mL and 11.4 mL"}, {"measurement": "Total white blood cell count, Av", "setting": "[5]; Lesinurad 1 mg/kg p.o.", "value": "0.41 ×10^8"}, {"measurement": "Total white blood cell count, individual rats 1-10", "setting": "[5]; Lesinurad 1 mg/kg p.o.", "value": "0.19 ×10^8 and 0.44 ×10^8 and 0.68 ×10^8 and 0.01 ×10^8 and 0.48 ×10^8 and 0.54 ×10^8 and 0.26 ×10^8 and 1.17 ×10^8 and 0.34 ×10^8 and 0.02 ×10^8"}, {"measurement": "Extravasation, in words", "setting": "[5]; Lesinurad 10 mg/kg", "value": "reduced extravasation"}, {"measurement": "Extravasation (optical absorbance at 620 nm), Av", "setting": "[5]; Lesinurad 10 mg/kg p.o.", "value": 1.03}, {"measurement": "Extravasation (optical absorbance at 620 nm), individual rats 1-10", "setting": "[5]; Lesinurad 10 mg/kg p.o.", "value": "1.20 and 0.93 and 0.89 and 0.77 and 0.71 and 0.97 and 0.82 (2×) and 1.94 and 1.25"}, {"measurement": "Exudate volume, Av", "setting": "[5]; Lesinurad 10 mg/kg p.o.", "value": 8.29, "unit": "mL"}, {"measurement": "Exudate volume, individual rats 1-10", "setting": "[5]; Lesinurad 10 mg/kg p.o.", "value": "7 mL and 10 mL and 6 mL (2×) and 8 mL and 9 mL (2×) and 12 mL and 8.4 mL and 7.5 mL"}, {"measurement": "Total white blood cell count, Av", "setting": "[5]; Lesinurad 10 mg/kg p.o.", "value": "0.57 ×10^8"}, {"measurement": "Total white blood cell count, individual rats 1-10", "setting": "[5]; Lesinurad 10 mg/kg p.o.", "value": "0.60 ×10^8 and 0.15 ×10^8 and 0.08 ×10^8 and 0.16 ×10^8 and 0.55 ×10^8 and 1.01 ×10^8 and 1.02 ×10^8 and 0.95 ×10^8 and 0.29 ×10^8 and 0.90 ×10^8"}, {"measurement": "Exudate volume, in words", "setting": "[5]; Lesinurad 10 mg/kg/day", "value": "significantly reduced exudate volume"}, {"measurement": "Number of white blood cells, in words", "setting": "[5]; Lesinurad 0.1, 1 and 10 mg/kg/day", "value": "significantly lowered the number of white blood cells"}, {"measurement": "Exudate volume, in words", "setting": "[5]; Lesinurad 0.1 and 1 mg/kg/day", "value": "did not significantly reduce exudate volume"}, {"measurement": "IL-4 levels in the exudates", "setting": "[5]; cytokines measured in air pouch exudates", "value": "significantly reduced IL-4 levels"}, {"measurement": "monosodium urate crystal-induced inflammatory response (total white blood cell counts)", "setting": "[6]", "value": "blocked"}]}
